Twelve molecules from ChEMBL document CHEMBL1201862, “PubChem BioAssay data set” (2004) can be followed below.

What all share (assay): NCI tumour cell line growth inhibition, 48 h
Experiment [1] has as its system A549.
The subject of experiment [2] is CAKI-1.
For experiment [3], the system named is HCC 2998.
Experiment [4] deals with HCT-116.
Experiment [5] deals with LOX IMVI.
The subject of experiment [6] is NCI-H226.
The test system of experiment [7] is NCI-H460.
In experiment [8] the test system is OVCAR-4.
Experiment [9] deals with OVCAR-5.
In experiment [10] the test system is RPMI-8226.
The test system of experiment [11] is SK-MEL-2.
For experiment [12], the system named is SK-MEL-5.
The test system of experiment [13] is SNB-19.
The test system of experiment [14] is UACC-257.
Experiment [15] relates to UO-31.
The subject of experiment [16] is HOP-62.
The test system of experiment [17] is MDA-MB-435.
Experiment [18] deals with PC-3.

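Where inhibition never reached the appropriate level, the endpoint shown equals the highest concentration tested. Otherwise, values were interpolated linearly from a five-concentration, 48-hour dose response in 96-well plates. GI50 is the concentration that inhibits growth by half.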 Active and inactive are the calls of the source. No stated cut-off is given here; in the data, active = GI50 up to about 1.1 µM and inactive = higher.

Take `Cc1ccc(NC(=O)CC2C(=O)Nc3ccccc3S2(=O)=O)cc1C` (stereo unspecified): the GI50 in [1], in experiment [2], in experiment [3], in [4], in experiment [5] and in experiment [6] was > 100 µM (inactive) each time. Moreover, the GI50 in experiment [7] was > 100 µM (inactive); in experiment [8], > 100 µM (inactive); in experiment [9], > 100 µM (inactive); in [10], 62.8 µM (inactive); in [11], > 100 µM (inactive); in experiment [12] it was > 100 µM (inactive). The GI50 in experiment [13], in experiment [14] and in experiment [15] was > 100 µM (inactive) throughout.
Consider `CS(=O)(=O)c1ccc(-c2cc(-c3ccc(S(C)(=O)=O)cc3)[n+](-c3cc(-c4ccccc4)c([O-])c(-c4ccccc4)c3)c(-c3ccc(S(C)(=O)=O)cc3)c2)cc1`, for which the GI50 in experiment [1], in experiment [2], in [3], in experiment [4], in [16] and in experiment [5] was > 100 µM (inactive) each time. In addition, the GI50 in experiment [6], in experiment [7], in [8], in experiment [9], in experiment [10] and in experiment [11] was > 100 µM (inactive) throughout. Further, the values for the GI50 in experiment [13], in experiment [14] and in experiment [15] were > 100 µM (inactive), 38.5 µM (inactive) and > 100 µM (inactive), respectively.
As to `CCOP(=O)(C=C=C1CCC2[C@@H]3CCc4cc(OC)ccc4C3CC[C@]12C)OCC` (stereo partly specified), the GI50 in experiment [1] was 4.07 µM (inactive); in experiment [2], 12.9 µM (inactive); in experiment [3], 12.1 µM (inactive); in experiment [4], 5.22 µM (inactive); in experiment [16], 15.3 µM (inactive); in [5], 9.06 µM (inactive). For the same molecule, the GI50 in experiment [17] is 12.4 µM (inactive); in [6], 5.43 µM (inactive); in experiment [7] it was 7.82 µM (inactive); in [8], 6.24 µM (inactive); in experiment [9] it was 17 µM (inactive); in experiment [18], 3.92 µM (inactive). For the same molecule, the GI50 in experiment [11] was 12.9 µM (inactive); in experiment [12], 2.98 µM (inactive); in [13] it was 13.6 µM (inactive); in experiment [14] it was 6.21 µM (inactive); in experiment [15] it was < 0.01 µM (active).
In the case of `On1c(-c2ccccc2)c(-c2ccccc2N2CCCC2)c2ccccc21`, the GI50 in [1], in [2], in experiment [3], in experiment [4], in experiment [16] and in experiment [5] was > 100 µM (inactive) each time. Besides, the GI50 in [6], in [7], in experiment [8], in [9], in experiment [10] and in experiment [11] was > 100 µM (inactive) each time. The GI50 in experiment [12], in [13] and in experiment [14] was > 100 µM (inactive) in each case.
`Cc1ccc(NC(=O)/C(=N/NC(=O)C[N+](C)(C)C)c2nc3ccccc3nc2O)cc1`: the GI50 in experiment [1] is > 100 µM (inactive); in experiment [2], > 100 µM (inactive); in experiment [3] it was > 100 µM (inactive); in experiment [4], > 100 µM (inactive); in [16], > 100 µM (inactive); in experiment [5] it was 51.4 µM (inactive). For the same molecule, the GI50 in [6], in experiment [7], in [8], in experiment [9], in [10] and in experiment [11] was > 100 µM (inactive) in each case. The GI50 in [12], in [13], in experiment [14] and in experiment [15] was > 100 µM (inactive) throughout.
`N#Cc1cc([N+](=O)[O-])ccc1NC(=O)/C(=N/N)C(C(=O)c1ccc(Cl)c(Cl)c1)C1OC(=O)c2ccccc21` (stereo unspecified): the GI50 in [1] was 23.7 µM (inactive); in [2] it was 38.1 µM (inactive); in experiment [3] it was 65.9 µM (inactive); in experiment [4], 39.1 µM (inactive); in experiment [16] it was 54.6 µM (inactive); in experiment [5] it was 21.7 µM (inactive). Moreover, the GI50 in experiment [6] was 16.3 µM (inactive); in [7], 35.8 µM (inactive); in experiment [8], 30.8 µM (inactive); in experiment [9] it was 47.2 µM (inactive); in experiment [10], 46.1 µM (inactive); in [11], 72.3 µM (inactive). Further, the GI50 is 63.7 µM (inactive) in experiment [12], 69.3 µM (inactive) in experiment [13], 84.7 µM (inactive) in experiment [14] and 49.9 µM (inactive) in experiment [15].
As to `CN1C2(c3ccccc3)c3c(-c4ccccc4)sc(-c4ccccc4)c3C1(c1ccccc1)C1C(=O)N(c3ccccc3)C(=O)C12` (stereo unspecified), the GI50 in experiment [1], in [2], in [3], in [4], in experiment [16] and in experiment [5] was > 100 µM (inactive) in each case. Also, the GI50 in [6], in experiment [7], in [8], in experiment [9], in experiment [10] and in experiment [12] was > 100 µM (inactive) in each case. For the same molecule, the GI50 in experiment [13], in experiment [14] and in experiment [15] was > 100 µM (inactive) each time.
`Cc1cc(N)c(C)c2c1[nH]c1ccc(O)cc12`: the GI50 in experiment [1], in experiment [2], in [3], in experiment [4], in [16] and in [5] was > 100 µM (inactive) in each case. The GI50 is > 100 µM (inactive) in experiment [6]; > 100 µM (inactive) in [7]; > 100 µM (inactive) in experiment [8]; > 100 µM (inactive) in experiment [9]; 48.4 µM (inactive) in experiment [10]; > 100 µM (inactive) in experiment [11]. Also, the GI50 in experiment [13], in experiment [14] and in experiment [15] was > 100 µM (inactive) each time.
`CC[n+]1c(/C=C/c2cc(C(=O)OC)n3c2sc2ccccc23)sc2ccccc21`: the GI50 in [1] is 18.8 µM (inactive); in [3] it was 14.6 µM (inactive); in [4] it was 14.5 µM (inactive); in experiment [16], 0.434 µM (active); in [5] it was 17.5 µM (inactive); in [6], 23 µM (inactive). Besides, the GI50 in experiment [7] is 16.2 µM (inactive); in [8], 17.8 µM (inactive); in [9], 20.8 µM (inactive); in [10], > 10 µM (inactive); in experiment [11] it was 18.7 µM (inactive); in experiment [12] it was 15 µM (inactive). Moreover, the GI50 in experiment [14] was 17.3 µM (inactive); in [15], 17.5 µM (inactive).
With `COc1cc(C2C(Cl)C(=O)N2NC(=O)c2ccc(N)cc2)ccc1O` (stereo unspecified), the GI50 in experiment [1] was > 100 µM (inactive); in experiment [2], 25.5 µM (inactive); in experiment [3], 20.2 µM (inactive); in experiment [4] it was 22.9 µM (inactive); in experiment [16], 35.9 µM (inactive); in [5], 14.8 µM (inactive). Further, the GI50 in experiment [6] is 95.7 µM (inactive); in experiment [7], 22.9 µM (inactive); in experiment [8] it was 81.3 µM (inactive); in experiment [9] it was 56.6 µM (inactive); in [10] it was 78 µM (inactive); in experiment [11] it was 59.8 µM (inactive). Besides, the GI50 was 84.5 µM (inactive) in experiment [12], 25.3 µM (inactive) in experiment [13], > 100 µM (inactive) in experiment [14] and > 100 µM (inactive) in [15].
Take `O=c1ccn([C@H]2CSC[C@@H](CO)C2)c(=O)[nH]1`: the GI50 in experiment [1], in experiment [2], in experiment [3], in experiment [4], in [16] and in experiment [5] was > 100 µM (inactive) each time. In addition, the GI50 in experiment [6], in experiment [7], in experiment [8], in experiment [9], in experiment [10] and in [11] was > 100 µM (inactive) throughout. The GI50 in [12], in experiment [13], in experiment [14] and in experiment [15] was > 100 µM (inactive) throughout.
On to `CN(C)c1ccc(/C=N/C23CC4CC(CC(C4)C2)C3)cc1`, for which the GI50 in experiment [1], in experiment [2], in [3], in experiment [4], in [16] and in experiment [5] was > 100 µM (inactive) throughout. The GI50 in [6], in experiment [7], in [8], in experiment [9], in experiment [10] and in experiment [11] was > 100 µM (inactive) each time. Also, the GI50 in experiment [12] was > 10 µM (inactive); in experiment [13], > 100 µM (inactive); in [14], > 100 µM (inactive); in [15] it was > 100 µM (inactive).
